# Measurements taken from patent publication US20220347299A1, “FLUORESCENT SYSTEMS FOR BIOLOGICAL IMAGING AND USES THEREOF” (LIGHTOX LIMITED, priority 2019, published 2022).
# Legend:
# Bacillus subtilis = assay: Baclight staining (propidium iodide / Syto 9), widefield imaging, B. subtilis; format: cell-based; details: 1 μM, 405 nm, 5 min
# Description: Samples prepared according to Table 9 were treated with compounds by diluting 10 mM of stock solution in media to make a 100 μM concentration. This solution was then further diluted 1:10 and 1:100 in media to make 10 μM and 1 μM media solutions containing the compound. 50 μl of cell culture were then added to the 100 μM, 10 μM and 1 μM compound-containing media preparations. Following the treatment outlined in Table 9, each of the three bacterial strains were stained using a Baclight™ staining kit containing separate solutions of Syto™ 9 and Propidium Iodide. One extra sample treated with 0.1 μM of each compound was also included in this assay. M. smegmatis, S. epidermis and B. subtilis were stained with propidium iodide to show non-viable cells and with Syto 9 to show all cells. The following staining procedure was used: • 1. 1 ml of each sample was eluted into a well of a 12-well plate; • 2. One half of the 12 well plate was irradiated at approximately 15 mW/cm^2 for 5 mins; • 3. The content of each well was eluted into separate Eppendorfs and centrifuged at 10,000 r.p.m for 3 rains to form a culture pellet; • 4. Media was then removed, and each pellet resuspended in 200 μl of 1× PBS before being centrifuged at 10,000 r.p.m. for 3 mins. • 5. A preparation of Baclight™-staining solution was made using 1 ml 1× PBS, 3 μl propidium iodide and 3 μl Syto™ 9; • 6. […]
# [1] = Peak absorption and fluorescence emission wavelengths in solvents; format: physicochemical; details: for λem(max)/nm: 100 nM, excitation at peak of absorption; for λabs(max)/nm: 10 μM
# Description: Peak absorption and fluorescence emission wavelengths of compounds 6, 7, 12, 13, 14, 15, 19, 23, 27, 30 and 34 were measured in a variety of solvents, and the results are shown in Table 1. Absorption measurements were recorded at a concentration of 10 μM, and emission measurements were recorded at a concentration of 100 nM. Emission spectra were recorded with excitation at the peak of absorption (S0→S1).
# HaCaT keratinocytes = assay: Co-staining with organelle markers, co-localisation (PCC); format: cell-based; details: 1 μM compound, 30 minutes, BODIPY ER-Tracker Red
# Description: To study the localisation of compounds in biological cells, co-staining of compounds of formula I with specific organelle markers (fluorescent dyes and antibodies) within biological cells was conducted. The following compounds were studied: compounds 6, 7, 12, 13, 14 and 15. HaCaT keratinocyte cell lines were used for the following experimental procedures. The cells were incubated in cell culture media (94% Dulbecco's Modified Eagle Medium (DMEM), 5% Foetal Bovine Serum (FBS) and 1% Penicillin Streptomycin solution (Pen-Strep). The cells were plated in 8-well plates, at a concentration of 25,000 cells per ml. 200 μl of cell suspension was added to each well, and the cells were incubated for 2 days before staining and imaging was carried out. In order to visualise the mitochondria, cells were probed with the mitochondrial dye MitoTracker® Deep Red. Cells to be stained were incubated with 200 μl MitoTracker® Deep Red solution (200 nM MitoTracker® and 1 μM Formula I compound in cell culture media) per well (N=3) for 30 minutes. Nile Red was used to identify lipids within the cells. 200 μl Nile Red Lipophilic dye (10 μg/ml Nile Red and 1 μM Formula I compound in cell culture media) was added to each well (N=3) and incubated for 30 minutes. For the detection of lysosomes within the cells, LysoTracker® Red DND-99 dye was used. 200 μl LysoTracker® Red DND-99 (50 nM LysoTracker® and 1 μM Formula I compound solution in cell culture media) was added to each well (N=3) and incubated for 30 minutes. For visualisation of the endoplasmic reticulum (ER), cells were stained with BODIPY® ER-Tracker® Red. 200 μl BODIPY ER-Tracker® Red (1 μM BODIPY® and 1 μM Formula I compound solution in cell culture media) was added to each well (N=3) and incubated for 30 minutes. Following incubation, the cell culture media containing dye was removed, and cells were washed twice with 200 μl phosphate buffered saline (PBS). After washing, 200 μl PBS was added into each well for imaging. For visualisation of the nuclear lamina, cells were probed with an anti-lamin A/C antibody. The cells were plated on 22×22 mm cover slips (10,000 cells/ml) and incubated for 2 days before staining. The cells were washed with PBS to remove excess media before staining. The cells were fixed with 4% paraformaldehyde (PFA) for 10 minutes at room temperature, before being washed twice in PBS for 5 minutes. Following washing, the cells were permeabilised in 0.4% Triton X-100 in PBS for 10 minutes. The cells were subsequently washed three times in PBS for 5 minutes, before being incubated in blocking buffer (1% BSA, 0.1% fish gelatine and 0.1% Triton X-100 in PBS) for 15 minutes at room temperature. The cells were incubated in primary antibody (mouse anti-lamin A/C IgG in blocking buffer) for 1 hour at room temperature. The cells were then washed twice in blocking buffer and incubated in secondary antibody (anti-mouse Alexa-594 IgG in blocking buffer) for 30 minutes at room temperature. Cells were washed twice in PBS for 10 minutes at room temperature. For cell staining with compounds of formula I, 5 μM of the compound of formula I in PBS was added to the cells for 30 minutes at room temperature. Cells were then washed five times for 5 minutes in PBS. Following washing, the cells were mounted onto non-charged microscopy slides using 6 μl Mowiol® per cover slip as mounting media. A Zeiss 880 confocal microscope was used for all the imaging work. [table] Image) Coloc2 software was used to calculate co-localization statistics between the compounds of formula I and the organelle marker images. The background was subtracted from each image and a region of interest (ROI) was used to target the analysis. The point spread function (PSF) of each image was calculated as 2.0 and Coastes' iterations was set to 100. The statistic quantified was the Pearson's Correlation Coefficient (PCC). PCC gives a number ranging from +1 to −1:1=perfect co-localisation; 0=no relationship; and, −1=perfect anti-co-localisation. […]
structure (smiles),measurement,setting,value
"COC(=O)/C=C/c1ccc(C#Cc2ccc(N(C)CCN)cc2)cc1 [Compound 12, methyl (2E)-3-[4-(2-{4-[(2-aminoethyl)(methyl)amino]phenyl}ethynyl)phenyl]prop-2-enoate]",proportion of non-viable (red) cells following irradiation compared to non-irradiated sample,Bacillus subtilis,the proportion of non-viable (red) cells is increased
same,λem(max)/nm,[1]; DCM,551 nm
same,λabs(max)/nm,[1]; DCM,371 nm
same,λem(max)/nm,[1]; Toluene,482 nm
same,λabs(max)/nm,[1]; Toluene,380 nm
same,average PCC Value with BODIPY ER-Tracker,HaCaT keratinocytes,0.34
